These results are taken from patent US12686682B2, “Indazole acetylene derivatives” (Hoffmann-La Roche Inc., priority 2020, dated 2026).

A word on the IC50: it is the concentration that inhibits the measured activity by half. Low readings indicate greater potency, high ones weaker potency.

The target of this assay is T1, Phospho EGFR LRCS (BaF3-LRCS cell line) (Homo sapiens, UniProt P00533, C797S/L858R).
T1 construct: host or cells: BaF3 (BaF3-LRCS), kept under puromycin selection
The assay can be described thus: HTRF Phospho EGFR LRCS Assay (Cellular). The class given is cell-based. To be noted: BaF3-LRCS cells, 4 hours incubation, HTRF phospho-EGFR readout. As to the method:
HTRF Phospho EGFR LRCS Assay (Cellular)
BaF3-LRCS cell line were obtained from Crownbio (San Diego, CA, USA). Cells were maintained at 37° C., 5% C02 in RPMI ATCC (Gibco 31870)+2 mM Glutamine+0.5 μg/ml Puromycin supplemented with 10% fetal bovine serum (FBS) (Gibco).
Cells are transferred as above to Greiner Bio-One, Nr. 784-08 micro-titerplate at 20000 cells/well in 12.5 μl of growth medium/well after the plates had been pre-filled with 12.5 nl of DMSO solutions of the to be tested compounds (in dose response) or DMSO only. After spinning the plates at 300×g for 30 seconds the cells were incubated for 4 hours at 37 C, 5% C02, 95% humidity. The cells were lysed by adding to the compound mix 4 µl/well of the supplemented lysis buffer (Cis-bio, Phospho-EGFR HTRF kit, 64EG1PEH), followed by incubation for 30 min at room temperature with shaking (400 rpm). The plates were then frozen and stored overnight at −80° C. On the next day and after thawing the plates, 4 μl of a mixture of anti-Phospho-EGFR Cryptate and of anti-Phospho-EGFR-d2 antibody solutions prepared in the supplied detection buffer was added to each well. The lidded plates were then incubated for 4 h at room temperature before reading the fluorescence emission at 616 and 665 nm using an Envision reader (Perkin Elmer). Data was analyzed in similar fashion as above using the normalized ratio of the 665 to 616 signals multiplied by 10000.

T1 sequence (P00533 25-1210 C797S/L858R): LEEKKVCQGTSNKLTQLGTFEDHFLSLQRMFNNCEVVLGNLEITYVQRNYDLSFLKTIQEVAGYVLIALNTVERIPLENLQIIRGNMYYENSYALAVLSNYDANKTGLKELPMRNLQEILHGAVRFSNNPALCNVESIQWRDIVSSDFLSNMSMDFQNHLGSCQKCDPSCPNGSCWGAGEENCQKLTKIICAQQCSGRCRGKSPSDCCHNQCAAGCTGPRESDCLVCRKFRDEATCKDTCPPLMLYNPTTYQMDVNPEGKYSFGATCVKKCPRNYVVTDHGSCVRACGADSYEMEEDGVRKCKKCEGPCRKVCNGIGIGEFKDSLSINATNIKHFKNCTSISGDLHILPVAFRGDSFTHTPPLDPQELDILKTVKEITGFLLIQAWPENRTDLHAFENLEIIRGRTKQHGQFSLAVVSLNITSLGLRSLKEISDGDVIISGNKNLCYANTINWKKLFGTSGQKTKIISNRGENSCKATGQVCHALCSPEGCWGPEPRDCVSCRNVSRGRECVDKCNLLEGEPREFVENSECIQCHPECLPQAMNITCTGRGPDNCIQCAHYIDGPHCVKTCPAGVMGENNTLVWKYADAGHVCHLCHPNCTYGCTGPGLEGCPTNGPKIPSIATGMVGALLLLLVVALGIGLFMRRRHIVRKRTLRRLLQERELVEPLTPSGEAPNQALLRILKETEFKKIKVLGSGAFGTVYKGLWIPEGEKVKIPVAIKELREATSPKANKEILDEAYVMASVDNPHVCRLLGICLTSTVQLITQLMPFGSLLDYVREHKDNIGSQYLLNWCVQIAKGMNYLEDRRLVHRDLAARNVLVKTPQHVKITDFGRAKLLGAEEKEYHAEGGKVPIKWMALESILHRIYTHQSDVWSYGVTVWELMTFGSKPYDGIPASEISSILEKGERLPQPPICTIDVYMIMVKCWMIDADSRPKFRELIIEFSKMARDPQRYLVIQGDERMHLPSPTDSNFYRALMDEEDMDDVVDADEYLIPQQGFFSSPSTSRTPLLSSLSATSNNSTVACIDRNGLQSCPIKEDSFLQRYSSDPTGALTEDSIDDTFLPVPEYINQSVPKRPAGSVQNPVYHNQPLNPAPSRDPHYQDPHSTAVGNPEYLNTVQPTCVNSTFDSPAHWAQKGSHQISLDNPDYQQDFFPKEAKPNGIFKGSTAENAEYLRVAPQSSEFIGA

Regarding `Cc1c(C#Cc2ccc(CN3CCC(CO)CC3)cc2)cc(C(F)F)c2cn(C(C(=O)Nc3nccs3)c3ncn4c3C[C@@H](F)C4)nc12` (stereo partly drawn) [Example 1, 2-[4-(Difluoromethyl)-6-[2-[4-[[4-(hydroxymethyl)-1-piperidyl]methyl]phenyl]ethynyl]-7-methyl-indazol-2-yl]-2-[(6R)-6-fluoro-6,7-dihydro-5H-pyrrolo[1,2-c]imidazol-1-yl]-N-thiazol-2-yl-acetamide], it took 22 nM to reach half-maximal inhibition (IC50). In other words, the double-digit nanomolar range.
The molecule `Cc1c(C#Cc2ccc(CN3CCC(CO)CC3)cc2)cc(C(F)F)c2cn(C(C(=O)Nc3nccs3)c3ncn4c3CCC4)nc12` (centres unmarked) [Example 2, 2-[4-(Difluoromethyl)-6-[2-[4-[[4-(hydroxymethyl)-1-piperidyl]methyl]phenyl]ethynyl]-7-methyl-indazol-2-yl]-2-(6,7-dihydro-5H-pyrrolo[1,2-c]imidazol-1-yl)-N-thiazol-2-yl-acetamide] gave an IC50 of 23 nM.
The molecule `Cc1c(C#Cc2ccc(CN3CCC(CO)CC3)cc2)cc(C(F)(F)F)c2cn(C(C(=O)Nc3nccs3)c3ncn4c3C[C@@H](F)C4)nc12` (stereo partly drawn) [Example 3, 2-[(6R)-6-Fluoro-6,7-dihydro-5H-pyrrolo[1,2-c]imidazol-1-yl]-2-[6-[2-[4-[[4-(hydroxymethyl)-1-piperidyl]methyl]phenyl]ethynyl]-7-methyl-4-(trifluoromethyl)indazol-2-yl]-N-thiazol-2-yl-acetamide] gave an IC50 of 15 nM.
Next, `Cc1c(C#Cc2ccc(CN3CCC(CO)CC3)cc2)cc(C(F)(F)F)c2cn(C(C(=O)Nc3nccs3)c3ncn4c3CCC4)nc12` (centres unmarked) [Example 4, 2-(6,7-Dihydro-5H-pyrrolo[1,2-c]imidazol-1-yl)-2-[6-[2-[4-[[4-(hydroxymethyl)-1-piperidyl]methyl]phenyl]ethynyl]-7-methyl-4-(trifluoromethyl)indazol-2-yl]-N-thiazol-2-yl-acetamide]: 9 nM; `Cc1c(C#Cc2ccc(CN3CCC(CO)CC3)cc2)cc(C(F)F)c2cn(C(C(=O)Nc3nccs3)c3ncn4c3CCC4(C)C)nc12` (centres unmarked) [Example 5, 2-[4-(Difluoromethyl)-6-[2-[4-[[4-(hydroxymethyl)-1-piperidyl]methyl]phenyl]ethynyl]-7-methyl-indazol-2-yl]-2-(5,5-dimethyl-6,7-dihydropyrrolo[1,2-c]imidazol-1-yl)-N-thiazol-2-yl-acetamide]: 11 nM.
Turning to `Cc1c(C#Cc2ccc(CN3CCC(CO)CC3)cc2)cc(C(F)F)c2cn(C(C(=O)Nc3nccs3)c3ncn4c3CCC43CC3)nc12` (centres unmarked) [Example 6], the IC50 is 10 nM. The IC50 values of the last two molecules are within 1.5-fold of each other.
In the case of `Cc1c(C#Cc2ccc(CN3CCC(CO)CC3)cc2)cc(C(F)(F)F)c2cn(C(C(=O)Nc3nccs3)c3ncn4c3CCC43CC3)nc12` (centres unmarked) [Example 7], the IC50 came out at 11 nM.
Turning to `Cc1c(C#Cc2ccc(CN3CCC(CO)CC3)cc2)cc(C(F)(F)F)c2cn(C(C(=O)Nc3nccs3)c3ncn4c3CCC4(C)C)nc12` (centres unmarked) [Example 8, 2-(5,5-Dimethyl-6,7-dihydropyrrolo[1,2-c]imidazol-1-yl)-2-[6-[2-[4-[[4-(hydroxymethyl)-1-piperidyl]methyl]phenyl]ethynyl]-7-methyl-4-(trifluoromethyl)indazol-2-yl]-N-thiazol-2-yl-acetamide], it took 12 nM to reach half-maximal inhibition (IC50). This IC50 and that of the molecule before are within 1.5-fold of each other.
